Test results reported in ChEMBL document CHEMBL4765276, “Synthesis of multimeric pyrrolidine iminosugar inhibitors of human β-glucocerebrosidase and α-galactosidase A: First example of a multivalent enzyme activity enhancer for Fabry disease” (Eur J Med Chem, 2020).

Legend:
[1] = target: T1, Lysosomal acid glucosylceramidase (Homo sapiens) (UniProt P04062); assay: Inhibition of human recombinant lysosomal GCase at 1 mM using 4-methylumbelliferyl-beta-D-glucopyranoside as substrate preincubated for 45 mins followed by substrate addition and measured after 30 mins by fluorescence spectrophotometric assay relative to control; details: time 75.0 min
T1 sequence (whole entry): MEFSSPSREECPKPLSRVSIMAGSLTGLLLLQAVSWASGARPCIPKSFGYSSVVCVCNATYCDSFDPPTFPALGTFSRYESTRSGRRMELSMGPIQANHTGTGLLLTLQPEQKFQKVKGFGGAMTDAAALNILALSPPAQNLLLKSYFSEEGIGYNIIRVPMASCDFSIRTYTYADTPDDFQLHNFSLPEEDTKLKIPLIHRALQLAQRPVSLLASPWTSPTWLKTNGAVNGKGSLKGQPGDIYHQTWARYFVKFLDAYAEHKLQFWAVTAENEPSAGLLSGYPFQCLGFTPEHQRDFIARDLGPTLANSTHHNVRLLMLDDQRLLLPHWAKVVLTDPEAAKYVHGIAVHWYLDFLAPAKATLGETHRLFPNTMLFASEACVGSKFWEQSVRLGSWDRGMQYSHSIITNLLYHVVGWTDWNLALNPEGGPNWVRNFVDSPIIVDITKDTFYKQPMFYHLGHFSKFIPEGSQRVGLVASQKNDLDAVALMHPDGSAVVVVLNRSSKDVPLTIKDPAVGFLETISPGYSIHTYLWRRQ

[2] = target: T2, Alpha-galactosidase A (Homo sapiens) (UniProt P06280); assay: Inhibition of human recombinant lysosomal alpha-GalA at 1 mM using 4-methylumbelliferyl-[…] as substrate preincubated for 45 mins followed by substrate addition and measured after 30 mins by fluorescence spectrophotometric assay relative to control; details: time 75.0 min
T2 sequence (whole entry): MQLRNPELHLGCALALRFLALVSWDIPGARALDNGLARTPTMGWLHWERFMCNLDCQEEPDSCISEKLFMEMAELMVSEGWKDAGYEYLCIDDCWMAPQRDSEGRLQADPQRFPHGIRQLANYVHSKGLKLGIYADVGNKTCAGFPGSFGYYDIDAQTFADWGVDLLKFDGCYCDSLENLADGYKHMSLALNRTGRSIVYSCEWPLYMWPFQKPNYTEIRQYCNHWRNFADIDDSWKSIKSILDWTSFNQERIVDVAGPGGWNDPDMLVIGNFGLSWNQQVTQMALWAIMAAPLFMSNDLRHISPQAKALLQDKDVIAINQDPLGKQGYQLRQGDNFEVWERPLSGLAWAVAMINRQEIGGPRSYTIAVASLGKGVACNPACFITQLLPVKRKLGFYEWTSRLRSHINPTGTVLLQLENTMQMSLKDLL

[3] = target: T3, Lysosomal acid glucosylceramidase (Homo sapiens, UniProt P04062); assay: Competitive inhibition of human recombinant lysosomal GCase using 4-methylumbelliferyl-beta-D-glucopyranoside as substrate preincubated for 45 mins followed by substrate addition and measured after 30 mins by fluorescence spectrophotometry based Lineweaver-Burk plot analysis
T3 sequence (P04062 whole entry): T1 sequence (whole entry)

[4] = target: T3, Lysosomal acid glucosylceramidase; assay: Inhibition of human recombinant lysosomal GCase using 4-methylumbelliferyl-beta-D-glucopyranoside as substrate preincubated for 45 mins followed by substrate addition and measured after 30 mins by fluorescence spectrophotometric assay
Alpha-galactosidase A = target: T4, Alpha-galactosidase A (Homo sapiens, UniProt P06280); assay: Inhibition of human recombinant lysosomal alpha-GalA using 4-methylumbelliferyl-[…] as substrate preincubated for 45 mins followed by substrate addition and measured after 30 mins by fluorescence spectrophotometric assay
T4 sequence (P06280 whole entry): T2 sequence (whole entry)

| inhibition [1] [%] | inhibition [2] [%] | Ki [3] [µM] | IC50 [4] [µM] | IC50 (Alpha-galactosidase A) [µM] | Structure (SMILES) |
| --- | --- | --- | --- | --- | --- |
| < 50 | < 50 | – | – | – | NC(COCc1cn(C[C@H]2NC[C@@H](O)[C@H]2O)nn1)(COCc1cn(C[C@H]2NC[C@@H](O)[C@H]2O)nn1)COCc1cn(C[C@H]2NC[C@@H](O)[C@H]2O)nn1 |
| < 50 | < 50 | – | – | – | COCc1cn(C[C@H]2NC[C@@H](O)[C@H]2O)nn1 |
| – | < 50 | 55 | 39 | – | COc1ccc(-c2cn(C[C@@H]3NC[C@@H](O)[C@H]3O)nn2)cc1 |
| – | < 50 | – | 725 | – | NC(COCc1cn(CCCc2cn(C[C@@H]3NC[C@@H](O)[C@H]3O)nn2)nn1)(COCc1cn(CCCc2cn(C[C@@H]3NC[C@@H](O)[C@H]3O)nn2)nn1)COCc1cn(CCCc2cn(C[C@@H]3NC[C@@H](O)[C@H]3O)nn2)nn1 |
| – | – | – | 168 | 897 | O[C@@H]1[C@H](O)CN[C@H]1Cn1cc(CCCn2cc(COCC(COCc3cn(CCCc4cn(C[C@@H]5NC[C@@H](O)[C@H]5O)nn4)nn3)(COCc3cn(CCCc4cn(C[C@@H]5NC[C@@H](O)[C@H]5O)nn4)nn3)COCc3cn(CCCc4cn(C[C@@H]5NC[C@@H](O)[C@H]5O)nn4)nn3)nn2)nn1 |
| < 50 | < 50 | – | – | – | COCc1cn(C[C@@H]2NC[C@@H](O)[C@H]2O)nn1 |
| < 50 | < 50 | – | – | – | O=C(NC(COCc1cn(C[C@@H]2NC[C@@H](O)[C@H]2O)nn1)(COCc1cn(C[C@@H]2NC[C@@H](O)[C@H]2O)nn1)COCc1cn(C[C@@H]2NC[C@@H](O)[C@H]2O)nn1)c1cc(C(=O)NC(COCc2cn(C[C@@H]3NC[C@@H](O)[C@H]3O)nn2)(COCc2cn(C[C@@H]3NC[C@@H](O)[C@H]3O)nn2)COCc2cn(C[C@@H]3NC[C@@H](O)[C@H]3O)nn2)cc(C(=O)NC(COCc2cn(C[C@@H]3NC[C@@H](O)[C@H]3O)nn2)(COCc2cn(C[C@@H]3NC[C@@H](O)[C@H]3O)nn2)COCc2cn(C[C@@H]3NC[C@@H](O)[C@H]3O)nn2)c1 |
| < 50 | – | – | – | 309 | NC(COCc1cn(CCCc2cn(C[C@H]3NC[C@@H](O)[C@H]3O)nn2)nn1)(COCc1cn(CCCc2cn(C[C@H]3NC[C@@H](O)[C@H]3O)nn2)nn1)COCc1cn(CCCc2cn(C[C@H]3NC[C@@H](O)[C@H]3O)nn2)nn1 |
| < 50 | – | – | – | 416 | O=C(CCCCC(=O)NC(COCc1cn(C[C@H]2NC[C@@H](O)[C@H]2O)nn1)(COCc1cn(C[C@H]2NC[C@@H](O)[C@H]2O)nn1)COCc1cn(C[C@H]2NC[C@@H](O)[C@H]2O)nn1)NC(COCc1cn(C[C@H]2NC[C@@H](O)[C@H]2O)nn1)(COCc1cn(C[C@H]2NC[C@@H](O)[C@H]2O)nn1)COCc1cn(C[C@H]2NC[C@@H](O)[C@H]2O)nn1 |
| < 50 | < 50 | – | – | – | O=C(NC(COCc1cn(CCCc2cn(C[C@@H]3NC[C@@H](O)[C@H]3O)nn2)nn1)(COCc1cn(CCCc2cn(C[C@@H]3NC[C@@H](O)[C@H]3O)nn2)nn1)COCc1cn(CCCc2cn(C[C@@H]3NC[C@@H](O)[C@H]3O)nn2)nn1)c1cc(C(=O)NC(COCc2cn(CCCc3cn(C[C@@H]4NC[C@@H](O)[C@H]4O)nn3)nn2)(COCc2cn(CCCc3cn(C[C@@H]4NC[C@@H](O)[C@H]4O)nn3)nn2)COCc2cn(CCCc3cn(C[C@@H]4NC[C@@H](O)[C@H]4O)nn3)nn2)cc(C(=O)NC(COCc2cn(CCCc3cn(C[C@@H]4NC[C@@H](O)[C@H]4O)nn3)nn2)(COCc2cn(CCCc3cn(C[C@@H]4NC[C@@H](O)[C@H]4O)nn3)nn2)COCc2cn(CCCc3cn(C[C@@H]4NC[C@@H](O)[C@H]4O)nn3)nn2)c1 |
| < 50 | < 50 | – | – | – | NC(COCc1cn(C[C@@H]2NC[C@@H](O)[C@H]2O)nn1)(COCc1cn(C[C@@H]2NC[C@@H](O)[C@H]2O)nn1)COCc1cn(C[C@@H]2NC[C@@H](O)[C@H]2O)nn1 |
| < 50 | < 50 | – | – | – | O=C(CCCCC(=O)NC(COCc1cn(C[C@@H]2NC[C@@H](O)[C@H]2O)nn1)(COCc1cn(C[C@@H]2NC[C@@H](O)[C@H]2O)nn1)COCc1cn(C[C@@H]2NC[C@@H](O)[C@H]2O)nn1)NC(COCc1cn(C[C@@H]2NC[C@@H](O)[C@H]2O)nn1)(COCc1cn(C[C@@H]2NC[C@@H](O)[C@H]2O)nn1)COCc1cn(C[C@@H]2NC[C@@H](O)[C@H]2O)nn1 |
| < 50 | < 50 | – | – | – | CCCc1cn(C[C@H]2NC[C@@H](O)[C@H]2O)nn1 |
| – | < 50 | 55 | 38 | – | NC(COCc1cn(CCOCCOc2ccc(-c3cn(C[C@@H]4NC[C@@H](O)[C@H]4O)nn3)cc2)nn1)(COCc1cn(CCOCCOc2ccc(-c3cn(C[C@@H]4NC[C@@H](O)[C@H]4O)nn3)cc2)nn1)COCc1cn(CCOCCOc2ccc(-c3cn(C[C@@H]4NC[C@@H](O)[C@H]4O)nn3)cc2)nn1 |
| – | < 50 | 1.1 | 1.1 | – | O=C(NC(COCc1cn(CCOCCOc2ccc(-c3cn(C[C@@H]4NC[C@@H](O)[C@H]4O)nn3)cc2)nn1)(COCc1cn(CCOCCOc2ccc(-c3cn(C[C@@H]4NC[C@@H](O)[C@H]4O)nn3)cc2)nn1)COCc1cn(CCOCCOc2ccc(-c3cn(C[C@@H]4NC[C@@H](O)[C@H]4O)nn3)cc2)nn1)c1cc(C(=O)NC(COCc2cn(CCOCCOc3ccc(-c4cn(C[C@@H]5NC[C@@H](O)[C@H]5O)nn4)cc3)nn2)(COCc2cn(CCOCCOc3ccc(-c4cn(C[C@@H]5NC[C@@H](O)[C@H]5O)nn4)cc3)nn2)COCc2cn(CCOCCOc3ccc(-c4cn(C[C@@H]5NC[C@@H](O)[C@H]5O)nn4)cc3)nn2)cc(C(=O)NC(COCc2cn(CCOCCOc3ccc(-c4cn(C[C@@H]5NC[C@@H](O)[C@H]5O)nn4)cc3)nn2)(COCc2cn(CCOCCOc3ccc(-c4cn(C[C@@H]5NC[C@@H](O)[C@H]5O)nn4)cc3)nn2)COCc2cn(CCOCCOc3ccc(-c4cn(C[C@@H]5NC[C@@H](O)[C@H]5O)nn4)cc3)nn2)c1 |
| < 50 | – | – | – | 286 | O=C(NC(COCc1cn(C[C@H]2NC[C@@H](O)[C@H]2O)nn1)(COCc1cn(C[C@H]2NC[C@@H](O)[C@H]2O)nn1)COCc1cn(C[C@H]2NC[C@@H](O)[C@H]2O)nn1)c1cc(C(=O)NC(COCc2cn(C[C@H]3NC[C@@H](O)[C@H]3O)nn2)(COCc2cn(C[C@H]3NC[C@@H](O)[C@H]3O)nn2)COCc2cn(C[C@H]3NC[C@@H](O)[C@H]3O)nn2)cc(C(=O)NC(COCc2cn(C[C@H]3NC[C@@H](O)[C@H]3O)nn2)(COCc2cn(C[C@H]3NC[C@@H](O)[C@H]3O)nn2)COCc2cn(C[C@H]3NC[C@@H](O)[C@H]3O)nn2)c1 |
| < 50 | – | – | – | 142 | O[C@@H]1[C@H](O)CN[C@@H]1Cn1cc(CCCn2cc(COCC(COCc3cn(CCCc4cn(C[C@H]5NC[C@@H](O)[C@H]5O)nn4)nn3)(COCc3cn(CCCc4cn(C[C@H]5NC[C@@H](O)[C@H]5O)nn4)nn3)COCc3cn(CCCc4cn(C[C@H]5NC[C@@H](O)[C@H]5O)nn4)nn3)nn2)nn1 |
| – | < 50 | – | 247 | – | CCCc1cn(C[C@@H]2NC[C@@H](O)[C@H]2O)nn1 |
| – | – | – | 333 | 483 | O=C(CCCCC(=O)NC(COCc1cn(CCCc2cn(C[C@@H]3NC[C@@H](O)[C@H]3O)nn2)nn1)(COCc1cn(CCCc2cn(C[C@@H]3NC[C@@H](O)[C@H]3O)nn2)nn1)COCc1cn(CCCc2cn(C[C@@H]3NC[C@@H](O)[C@H]3O)nn2)nn1)NC(COCc1cn(CCCc2cn(C[C@@H]3NC[C@@H](O)[C@H]3O)nn2)nn1)(COCc1cn(CCCc2cn(C[C@@H]3NC[C@@H](O)[C@H]3O)nn2)nn1)COCc1cn(CCCc2cn(C[C@@H]3NC[C@@H](O)[C@H]3O)nn2)nn1 |
| – | – | 2.7 | 4.7 | 215 | O=C(CCCCC(=O)NC(COCc1cn(CCOCCOc2ccc(-c3cn(C[C@@H]4NC[C@@H](O)[C@H]4O)nn3)cc2)nn1)(COCc1cn(CCOCCOc2ccc(-c3cn(C[C@@H]4NC[C@@H](O)[C@H]4O)nn3)cc2)nn1)COCc1cn(CCOCCOc2ccc(-c3cn(C[C@@H]4NC[C@@H](O)[C@H]4O)nn3)cc2)nn1)NC(COCc1cn(CCOCCOc2ccc(-c3cn(C[C@@H]4NC[C@@H](O)[C@H]4O)nn3)cc2)nn1)(COCc1cn(CCOCCOc2ccc(-c3cn(C[C@@H]4NC[C@@H](O)[C@H]4O)nn3)cc2)nn1)COCc1cn(CCOCCOc2ccc(-c3cn(C[C@@H]4NC[C@@H](O)[C@H]4O)nn3)cc2)nn1 |
